The experiment deals with C3AKF1 mice, hamster liver cystadenocarcinoma s.c., tumor weight T/C. Nature of the experiment: NCI In Vivo Anticancer Drug Screen. Data for tumor model Cystadenocarcinoma, Liver (No. 1) (Hamster) (subcutaneous) in C3AKF1 (CHKRF1) mice. The conditions noted are these: endpoint: mean tumor weight, schedule: Q01DX010 (ip), higher = larger tumour. As for the experimental part:
The antitumor activity of compounds was measured in mice bearing transplantable tumors. Survival or tumor size were measured and the results are expressed as the measurement made in the treated group (T) divided by the measurement made in the vehicle treated control group (C). The tumor model used in this assay is Cystadenocarcinoma, Liver (No. 1) (Hamster) (subcutaneous) in C3AKF1 (CHKRF1) mice

Where [1] appears, read: dose: 12.0 mg/kg/injection, vehicle: carboxymethylcellulose (CMC).
The mark [2] stands for this setting: dose: 25.0 mg/kg/injection, vehicle: carboxymethylcellulose (CMC).
The mark [3] stands for this setting: dose: 50.0 mg/kg/injection, vehicle: carboxymethylcellulose (CMC).
Where [4] appears, read: dose: 100.0 mg/kg/injection, vehicle: carboxymethylcellulose (CMC).
Where [5] appears, read: dose: 15.0 mg/kg/injection, vehicle: carboxymethylcellulose (CMC).
Where [6] appears, read: dose: 30.0 mg/kg/injection, vehicle: carboxymethylcellulose (CMC).
The mark [7] stands for this setting: dose: 60.0 mg/kg/injection, vehicle: carboxymethylcellulose (CMC).
Where [8] appears, read: dose: 19.0 mg/kg/injection, vehicle: carboxymethylcellulose (CMC).
The mark [9] stands for this setting: dose: 37.5 mg/kg/injection, vehicle: carboxymethylcellulose (CMC).
Setting [10] is: dose: 75.0 mg/kg/injection, vehicle: carboxymethylcellulose (CMC).
The mark [11] stands for this setting: dose: 1.0 mg/kg/injection, vehicle: carboxymethylcellulose (CMC).
Where [12] appears, read: dose: 200.0 mg/kg/injection, vehicle: carboxymethylcellulose (CMC).
[13] abbreviates: dose: 10.0 mg/kg/injection, vehicle: carboxymethylcellulose (CMC).
[14] abbreviates: dose: 20.0 mg/kg/injection, vehicle: carboxymethylcellulose (CMC).
[15] abbreviates: dose: 40.0 mg/kg/injection, vehicle: carboxymethylcellulose (CMC).
The mark [16] stands for this setting: dose: 1.25 mg/kg/injection, vehicle: carboxymethylcellulose (CMC).
[17] abbreviates: dose: 2.5 mg/kg/injection, vehicle: carboxymethylcellulose (CMC).

Values joined by “and” are separate entries in the source; they are usually repeats but may differ in a detail not shown here. Equal values may be shown once. Records with an inconclusive call do not appear.

In the case of `CSc1ncnc2c1ncn2C1CCCO1` (configuration not stated), the T/C was 70 % of control under setting [1]; 69 % of control under setting [2]; 72 % of control and 79 % of control under setting [3]; 63 % of control and 76 % of control under setting [4].

Regarding `CC(=O)Nc1ccc(NC(=O)c2ccc([As](O)O)cc2)cc1`, the T/C under setting [5] is 60 % of control; the T/C under setting [6] was 77 % of control; the T/C under setting [7] is 92 % of control; the T/C (dose: 120.0 mg/kg/injection, vehicle: carboxymethylcellulose (CMC)) is 91 % of control.

Regarding `CC(CCc1cccc2ccccc12)(C(=O)O)C(=O)O`, under setting [4], the T/C was 96 % of control.

In the case of `NC(N)=N/N=C/C=N/N=C(N)N`, the T/C under setting [6] is 98 % of control.

`O=c1[nH]c2cc(Cl)c(Cl)cc2o1`: the T/C runs as follows: (dose: 9.5 mg/kg/injection, vehicle: carboxymethylcellulose (CMC)) 119 % of control; under setting [8], 104 % of control; under setting [9], 95 % of control and 107 % of control; under setting [10], 98 % of control.

In the case of `CN(N=O)C(N)=O`, the T/C (dose: 3.75 mg/kg/injection, vehicle: carboxymethylcellulose (CMC)) was 95 % of control.

Consider `CCOC(=O)NC`, for which the T/C was 64 % of control (dose: 75.0 mg/kg/injection, vehicle: saline); 83 % of control (dose: 150.0 mg/kg/injection, vehicle: saline); 93 % of control (dose: 300.0 mg/kg/injection, vehicle: saline); 83 % of control (dose: 600.0 mg/kg/injection, vehicle: saline).

With `CCCCn1cnc2c(=S)nc(N)[nH]c21`, the T/C was 82 % of control under setting [11]; 60 % of control and 77 % of control (dose: 7.0 mg/kg/injection, vehicle: carboxymethylcellulose (CMC)); 50 % of control under setting [5]; 49 % of control under setting [6].

For the compound `Nc1nc(SCc2ccccc2Cl)c2[nH]cnc2n1`, the T/C by setting is: under setting [1], 55 % of control; under setting [2], 104 % of control; under setting [3], 60 % of control and 84 % of control; under setting [4], 100 % of control and 109 % of control.

With `CS(=O)(=O)OCCCOS(C)(=O)=O`, the T/C was 53 % of control under setting [5], 79 % of control under setting [6] and 53 % of control under setting [7].

Turning to `Nc1ncnc2c1ncn2C1CCCO1` (configuration not stated), the T/C is, setting by setting: under setting [2], 107 % of control; under setting [3], 107 % of control; under setting [12], 69 % of control.

Turning to `CCCCCCCCCCCCCCCCC(C(=O)O)C(O)(CC(=O)O)C(=O)O` (configuration not stated), the T/C under setting [8] is 78 % of control and the T/C under setting [9] was 87 % of control.

For `S=C(N=Nc1ccccc1)NNc1ccccc1`, the T/C under setting [9] is 98 % of control.

In the case of `O=C(O)Cc1ccc(C2CCCCC2)cc1`, the T/C under setting [9] is 118 % of control; the T/C under setting [10] is 115 % of control; the T/C (dose: 150.0 mg/kg/injection, vehicle: carboxymethylcellulose (CMC)) is 114 % of control and 121 % of control; the T/C (dose: 300.0 mg/kg/injection, vehicle: carboxymethylcellulose (CMC)) was 94 % of control.

In the case of `CCCC(Sc1nc(N)nc2nc[nH]c12)C(=O)O` (configuration not stated), the T/C by setting is: under setting [13], 66 % of control; under setting [14], 103 % of control; under setting [15], 123 % of control; (dose: 80.0 mg/kg/injection, vehicle: carboxymethylcellulose (CMC)) 116 % of control and 118 % of control; (dose: 160.0 mg/kg/injection, vehicle: carboxymethylcellulose (CMC)) 76 % of control.

`CCC[CH2][Sn]([CH2]CCC)([CH2]CCC)[O]C(=O)CC[S][Sn]([CH2]CCC)([CH2]CCC)[CH2]CCC`: the T/C is, setting by setting: (dose: 0.75 mg/kg/injection, vehicle: saline) 111 % of control; (dose: 1.5 mg/kg/injection, vehicle: saline) 77 % of control; (dose: 3.0 mg/kg/injection, vehicle: saline) 100 % of control; (dose: 6.0 mg/kg/injection, vehicle: saline) 83 % of control and 84 % of control; (dose: 12.0 mg/kg/injection, vehicle: saline) 92 % of control; (dose: 24.0 mg/kg/injection, vehicle: saline) 93 % of control.

Take `CCCCCCCCCCCC[n+]1ccc(C)cc1C`: the T/C (dose: 0.06 mg/kg/injection, vehicle: saline) is 71 % of control; the T/C (dose: 0.12 mg/kg/injection, vehicle: saline) was 75 % of control; the T/C (dose: 0.25 mg/kg/injection, vehicle: saline) was 85 % of control.

For the compound `Clc1ccc(N2CCN(CCCN3CCN(c4cccc(Cl)c4)CC3)CC2)cc1`, the T/C is, setting by setting: (dose: 7.5 mg/kg/injection, vehicle: carboxymethylcellulose (CMC)) 71 % of control; under setting [5], 62 % of control; under setting [6], 52 % of control; under setting [7], 69 % of control.

On to `NC(=O)c1ccc(NC(=O)CCC(=O)Nc2ccc(C(N)=O)cn2)nc1`, for which the T/C is 92 % of control under setting [16] and 72 % of control under setting [17].

Regarding `COc1ccc(Nc2ccnc3cc(Cl)ccc23)cc1CN(CCCl)CCCl`, the T/C (dose: 0.5 mg/kg/injection, vehicle: carboxymethylcellulose (CMC)) is 95 % of control; the T/C under setting [11] is 91 % of control; the T/C (dose: 2.0 mg/kg/injection, vehicle: carboxymethylcellulose (CMC)) was 93 % of control; the T/C (dose: 4.0 mg/kg/injection, vehicle: carboxymethylcellulose (CMC)) was 70 % of control.

Consider `O=C1C=Cc2ccc(O)cc2C1=O`, for which the T/C reads like this: under setting [16], 71 % of control; under setting [17], 72 % of control; (dose: 5.0 mg/kg/injection, vehicle: carboxymethylcellulose (CMC)) 74 % of control; under setting [13], 88 % of control and 89 % of control; under setting [14], 74 % of control.

For the compound `O=C(Nc1ccc(C2=NCCN2)cc1)c1ccc(C(=O)Nc2ccc(C3=NCCN3)cc2)c(Cl)c1`, the T/C is, setting by setting: (dose: 5.0 mg/kg/injection, vehicle: saline) 83 % of control; (dose: 10.0 mg/kg/injection, vehicle: saline) 114 % of control; (dose: 20.0 mg/kg/injection, vehicle: saline) 80 % of control.

As for `[I][Hg][CH2]C1COCC([CH2][Hg][I])O1.[I][Hg][CH2]C1COCC([CH2][Hg][I])O1` (configuration not stated), the T/C is, setting by setting: under setting [13], 83 % of control; under setting [14], 109 % of control; under setting [15], 91 % of control.

For `Oc1ccc2ccccc2c1N=Nc1ccccc1`, the T/C runs as follows: under setting [2], 102 % of control; under setting [3], 84 % of control; under setting [4], 75 % of control; under setting [12], 72 % of control.

For `CS(=O)(=O)OCC(=O)NCCNC(=O)COS(C)(=O)=O`, the T/C is, setting by setting: under setting [14], 105 % of control; under setting [15], 100 % of control.

Consider `C=CCn1c(=O)n(CC=C)c(=O)n(CC=C)c1=O`, for which the T/C is, setting by setting: (dose: 22.5 mg/kg/injection, vehicle: saline) 76 % of control; (dose: 45.0 mg/kg/injection, vehicle: saline) 63 % of control; (dose: 90.0 mg/kg/injection, vehicle: saline) 63 % of control.

In the case of `C/C=C1\CN(C)[C@H]2Cc3c([nH]c4ccccc34)[C@@H](c3cc4[nH]c5c(c4cc3OC)CCN3C[C@H]4C[C@H](CC)[C@H]3[C@@]5(C(=O)OC)C4)C[C@H]1C2C(=O)OC` (some centres not stated), the T/C (dose: 30.0 mg/kg/injection, vehicle: water) is 70 % of control.

As to `NNc1nncc2ccccc12`, the T/C is 111 % of control under setting [9] and 94 % of control under setting [10].

The values are drawn from PubChem BioAssay AID234 (DTP/NCI, 2004).
